Measurements published in patent US20220135591A1, “HETEROCYCLIC COMPOUNDS AS INHIBITORS OF MONOACYLGLYCEROL LIPASE (MAGL)” (Hoffmann-La Roche Inc., priority 2019, published 2022).

target: T1, MAGL (Homo sapiens, UniProt Q99685); experiment: 2-AG assay: MAGL inhibitory activity by hydrolysis of 2-arachidonoylglycerol to arachidonic acid, mass spectrometry; assay type: biochemical; conditions: 2-AG assay (values marked [b])
T1 sequence (Q99685 1-303): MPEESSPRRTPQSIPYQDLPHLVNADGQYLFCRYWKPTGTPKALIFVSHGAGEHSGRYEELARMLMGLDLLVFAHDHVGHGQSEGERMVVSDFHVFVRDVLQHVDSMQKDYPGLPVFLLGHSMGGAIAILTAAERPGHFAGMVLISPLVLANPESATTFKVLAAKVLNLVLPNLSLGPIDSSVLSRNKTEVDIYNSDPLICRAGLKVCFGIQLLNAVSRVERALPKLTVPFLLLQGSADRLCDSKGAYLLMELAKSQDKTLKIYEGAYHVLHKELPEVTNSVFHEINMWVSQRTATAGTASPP
Procedure, shortened: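 Hydrolysis of 8 μM 2-arachidonoylglycerol by […] was run for 30 min at RT after a 15 min compound preincubation, in Tris/EDTA/Tween buffer. Test compounds spanned […]. The product was measured by online SPE-MS/MS (transitions 303.1→259.1 and 311.1→267.0), and activity was derived from the arachidonic acid/d8-arachidonic acid signal ratio.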

Row | IC50 | SMILES
1 | 137 nM | C[C@H]1CN(C(=O)c2ccc(-c3cn(CC(C)(C)C)nn3)cc2)CCN1c1nc2nc(Cl)ccc2o1 [Example 274, [(3S)-4-(5-chlorooxazolo[4,5-b]pyridin-2-yl)-3-methyl-piperazin-1-yl]-[4-[1-(2,2-dimethylpropyl)triazol-4-yl]phenyl]methanone]
2 | 859 nM | CC1(n2cc(-c3ccc(C(=O)N4CCN(c5nc6nc(Cl)ccc6o5)CC4)cc3)nn2)COC1 [Example 110, [4-(5-chloro-[1,3]oxazolo[4,5-b]pyridin-2-yl)piperazin-1-yl]-[4-[1-(3-methyloxetan-3-yl)triazol-4-yl]phenyl]methanone]
3 | 3 nM | CC(C)(C)Cn1nnc(-c2ccc(C(=O)N3CCN(c4nc5nc(Cl)ccc5o4)CC3)cc2)n1 [Example 283, (4-(5-chlorooxazolo[4,5-b]pyridin-2-yl)piperazin-1-yl)(4-(2-neopentyl-2H-tetrazol-5-yl)phenyl)methanone]
4 | 21 nM | CC(C)(C)c1nc(-c2c(F)cc(C(=O)N3CCN(c4nc5nc(Cl)ccc5o4)CC3)cc2F)no1 [Example 80, [4-(5-tert-butyl-1,2,4-oxadiazol-3-yl)-3,5-difluoro-phenyl]-[4-(5-chlorooxazolo[4,5-b]pyridin-2-yl)piperazin-1-yl]methanone]
5 | 12 nM | CC(C)(C)n1cnc(-c2ccc(C(=O)N3CCN(c4nc5nc(Cl)ccc5o4)CC3)cc2C(F)(F)F)n1 [Example 112, [4-(1-tert-butyl-1,2,4-triazol-3-yl)-3-(trifluoromethyl)phenyl]-[4-(5-chloro-[1,3]oxazolo[4,5-b]pyridin-2-yl)piperazin-1-yl]methanone]
6 | 25 nM | CC(C)(C)Cn1ncc(-c2ncc(C(=O)N3CCN(c4nc5nc(Cl)ccc5o4)CC3)cc2F)n1 [Example 243, (4-(5-chlorooxazolo[4,5-b]pyridin-2-yl)piperazin-1-yl)(5-fluoro-6-(2-neopentyl-2H-1,2,3-triazol-4-yl)pyridin-3-yl)methanone]
7 | 1300 nM | Cc1ccc2oc(N3CCN(C(=O)c4cnc(-c5cnnn5CC(C)(C)C)c(F)c4)CC3)nc2n1 [Example 246, (5-fluoro-6-(1-neopentyl-1H-1,2,3-triazol-5-yl)pyridin-3-yl)(4-(5-methyloxazolo[4,5-b]pyridin-2-yl)piperazin-1-yl)methanone]
8 | 2 nM | CC(C)(C)Cn1ncc(-c2ccc(C(=O)N3CCN(c4nc5nc(Cl)ccc5o4)CC3)cc2F)n1 [Example 84, (4-(5-chlorooxazolo[4,5-b]pyridin-2-yl)piperazin-1-yl)(3-fluoro-4-(2-neopentyl-2H-1,2,3-triazol-4-yl)phenyl)methanone]
9 | 175 nM | Cc1ccc2oc(N3CCN(C(=O)c4ccc(-n5cnc(C(C)(C)C)n5)c(C)c4)CC3)nc2n1 [Example 288, [4-(3-tert-butyl-1,2,4-triazol-1-yl)-3-methyl-phenyl]-[4-(5-methyloxazolo[4,5-b]pyridin-2-yl)piperazin-1-yl]methanone]
10 | ≥ 12500 nM | Cc1ccc2oc(N3CCN(C(=O)N4CC(C(=O)Nc5ccc(F)cc5Cl)C4)CC3)nc2n1 [Example 256, N-(2-chloro-4-fluorophenyl)-1-[4-(5-methyl-[1,3]oxazolo[4,5-b]pyridin-2-yl)piperazine-1-carbonyl]azetidine-3-carboxamide]
11 | 228 nM | Cc1ccc2oc(N3CCN(C(=O)c4ccc(-c5nc(C(C)(C)C)nn5C)cc4)CC3)nc2n1 [Example 127, [4-(5-tert-butyl-2-methyl-1,2,4-triazol-3-yl)phenyl]-[4-(5-methyloxazolo[4,5-b]pyridin-2-yl)piperazin-1-yl]methanone]
12 | 58 nM | Cc1cc(C(=O)N2CCN(c3nc4nc(Cl)ccc4o3)CC2)ccc1-c1cn(C(C)(C)C)nn1 [Example 257, (4-(1-(tert-butyl)-1H-1,2,3-triazol-4-yl)-3-methylphenyl)(4-(5-chlorooxazolo[4,5-b]pyridin-2-yl)piperazin-1-yl)methanone]
13 | 98 nM | Cc1ccc2oc(N3CCN(C(=O)c4cnc(-c5cnn(C(C)(C)C)c5)c(C)c4)CC3)nc2n1 [Example 191, [6-(1-tert-butylpyrazol-4-yl)-5-methylpyridin-3-yl]-[4-(5-methyl-[1,3]oxazolo[4,5-b]pyridin-2-yl)piperazin-1-yl]methanone]
14 | 4 nM | Cc1cc(C(=O)N2CCN(c3nc4nc(Cl)ccc4o3)CC2)ccc1-c1cn(CC(C)(C)C)nn1 [Example 231, (4-(5-chlorooxazolo[4,5-b]pyridin-2-yl)piperazin-1-yl)(3-methyl-4-(1-neopentyl-1H-1,2,3-triazol-4-yl)phenyl)methanone]
15 | 2050 nM | CC(C)(C)Cn1cc(-c2ccc(C(=O)N3CCN(c4nc5nc(Cl)ccc5o4)C(CO)C3)cc2)nn1 (centres unmarked) [Example 285, [4-(5-chlorooxazolo[4,5-b]pyridin-2-yl)-3-(hydroxymethyl)piperazin-1-yl]-[4-[1-(2,2-dimethylpropyl)triazol-4-yl]phenyl]methanone]
16 | 4 nM | CC(C)(C)Cn1cc(-c2ccc(C(=O)N3CCN(c4nc5nc(Cl)ccc5o4)CC3)cc2C(F)(F)F)nn1 [Example 268, (4-(5-chlorooxazolo[4,5-b]pyridin-2-yl)piperazin-1-yl)(4-(1-neopentyl-1H-1,2,3-triazol-4-yl)-3-(trifluoromethyl)phenyl)methanone]
17 | 49 nM | CC(C)(F)Cn1cc(-c2ccc(C(=O)N3CCN(c4nc5nc(Cl)ccc5o4)CC3)cc2)nn1 [Example 132, (4-(5-chlorooxazolo[4,5-b]pyridin-2-yl)piperazin-1-yl)(4-(1-(2-fluoro-2-methylpropyl)-1H-1,2,3-triazol-4-yl)phenyl)methanone]
18 | 4 nM | Cc1cc(C(=O)N2CCN(c3nc4nc(Cl)ccc4o3)CC2)cnc1-n1cc(C(C)(C)C)cn1 [Example 120, [6-(4-tert-butylpyrazol-1-yl)-5-methylpyridin-3-yl]-[4-(5-chloro-[1,3]oxazolo[4,5-b]pyridin-2-yl)piperazin-1-yl]methanone]
19 | 1130 nM | Cc1ccc2oc(N3CCN(C(=O)c4cnc(-c5nnn(CC(C)(C)C)n5)c(F)c4)CC3)nc2n1 [Example 307, [6-[2-(2,2-dimethylpropyl)tetrazol-5-yl]-5-fluoro-3-pyridyl]-[4-(5-methyloxazolo[4,5-b]pyridin-2-yl)piperazin-1-yl]methanone]
20 | ≥ 12500 nM | O=C(Nc1ccc(F)cc1Cl)C1CN(C(=O)N2CCN(c3nc4nc(Cl)ccc4o3)CC2)C1 [Example 255, N-(2-chloro-4-fluorophenyl)-1-[4-(5-chloro-[1,3]oxazolo[4,5-b]pyridin-2-yl)piperazine-1-carbonyl]azetidine-3-carboxamide]
21 | 3 nM | Cc1ccc2oc(N3CCN(C(=O)c4ccc(-c5nnn(CC(C)(C)C)n5)c(C)c4)CC3)nc2n1 [Example 301, [4-[2-(2,2-dimethylpropyl)tetrazol-5-yl]-3-methyl-phenyl]-[4-(5-methyloxazolo[4,5-b]pyridin-2-yl)piperazin-1-yl]methanone]
22 | 174 nM | COc1cc(C(=O)N2CCN(c3nc4nc(C)ccc4o3)CC2)ccc1-c1ncn(C(C)(C)C)n1 [Example 123, (4-(1-(tert-butyl)-1H-1,2,4-triazol-3-yl)-3-methoxyphenyl)(4-(5-methyloxazolo[4,5-b]pyridin-2-yl)piperazin-1-yl)methanone]
23 | 1080 nM | Cc1ccc2oc(N3CCN(C(=O)c4ccc(-c5cn(CC6(C)COC6)nn5)cc4)CC3)nc2n1 [Example 100, (4-(5-methyloxazolo[4,5-b]pyridin-2-yl)piperazin-1-yl)(4-(1-((3-methyloxetan-3-yl)methyl)-1H-1,2,3-triazol-4-yl)phenyl)methanone]
24 | 1 nM | Cc1cc(C(=O)N2CCN(c3nc4nc(Cl)ccc4o3)CC2)ccc1-c1cnn(CC(C)(C)C)n1 [Example 232, (4-(5-chlorooxazolo[4,5-b]pyridin-2-yl)piperazin-1-yl)(3-methyl-4-(2-neopentyl-2H-1,2,3-triazol-4-yl)phenyl)methanone]
25 | 1750 nM | Cc1cc(C(=O)N2CCN(c3nc4nc(Cl)ccc4o3)CC2)cnc1OCC1CCO1 (centres unmarked) [Example 168, (4-(5-chlorooxazolo[4,5-b]pyridin-2-yl)piperazin-1-yl)(5-methyl-6-(oxetan-2-ylmethoxy)pyridin-3-yl)methanone]
26 | 4270 nM | Cc1ccc2oc(N3CCN(C(=O)c4ccc(-c5cn(CC6COC6)nn5)cc4)CC3)nc2n1 [Example 113, [4-(5-methyl-[1,3]oxazolo[4,5-b]pyridin-2-yl)piperazin-1-yl]-[4-[1-(oxetan-3-ylmethyl)triazol-4-yl]phenyl]methanone]
27 | 37 nM | Cc1ccc2oc(N3CCN(C(=O)c4ccc(-c5nnc(C(C)(C)C)o5)c(C)c4)CC3)nc2n1 [Example 82, [4-(5-tert-butyl-1,3,4-oxadiazol-2-yl)-3-methyl-phenyl]-[4-(5-methyloxazolo[4,5-b]pyridin-2-yl)piperazin-1-yl]methanone]
28 | 121 nM | O=C(c1ccc(-c2cn(CC3(F)CC3)nn2)cc1)N1CCN(c2nc3nc(Cl)ccc3o2)CC1 [Example 125, (4-(5-chlorooxazolo[4,5-b]pyridin-2-yl)piperazin-1-yl)(4-(1-((1-fluorocyclopropyl)methyl)-1H-1,2,3-triazol-4-yl)phenyl)methanone]
29 | 183 nM | COc1cc(C(=O)N2CCN(c3nc4nc(Cl)ccc4o3)CC2)cnc1OCC1(C(F)(F)F)CC1 [Example 138, [4-(5-chlorooxazolo[4,5-b]pyridin-2-yl)piperazin-1-yl]-[5-methoxy-6-[[1-(trifluoromethyl)cyclopropyl]methoxy]-3-pyridyl]methanone]
